# Assay results as given in US8987195B2 (priority 2012, dated 2015).
# Like-named read-outs stand apart in the source and are kept apart here.
# How the values were obtained:
# HCV genotype 1b replicon = experiment: HCV replicon assay, genotype 1b replicon EC50; assay type: cell-based, Hepatitis C virus; conditions: Hepatitis C virus, read-out: EC50 [gt-1b]
# How it was run: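 Readout was replicon RNA copy number, by 32P-probe protection or TaqMan normalized to cellular cyclophilin A RNA, or luciferase activity for luciferase:Neo^r fusion lines. Cells were exposed to serially diluted compound for 24-48 hours without G418, then washed and lysed. EC50 derived from four-parameter fit relative to DMSO.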
# [1] = target: HCV NS3/4A protease genotype 1b (Hepatitis C virus genotype 1b, UniProt P26663); experiment: HCV NS3/4A protease time-resolved fluorescence (TRF) assay, Ki against genotype 1b; assay type: biochemical
# How it was run: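 Enzyme was pre-incubated 30 min with inhibitor in HEPES pH 7.5 buffer (150 mM NaCl, 15% glycerol, 10 mM DTT). Reaction ran 2.5 h at room temperature with 25 nM europium TRF peptide substrate, read at ex 340/em 615 nm. Enzyme levels: 0.2 nM (1b), 0.4 nM (A156T), 0.025 nM (3a). Ki came from four-parameter IC50 via IC50=Ki(1+[S]/KM).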
# [2] = IC50 [gt-1b] (nM), NS3/4A genotype 1b, enzyme 0.2 nM, K+ salt
# [3] = IC50 [gt-1b] (nM), NS3/4A genotype 1b, enzyme 0.2 nM
# [4] = IC50 [gt-1b], NS3/4A protease TRF assay, genotype 1b enzyme 0.2 nM
structure (smiles),measurement,setting,value
"COc1ccc2nc(C3CCC3)c3c(c2c1)CC[C@]1(C[C@H]2C(=O)NC4(C(=O)NS(=O)(=O)C5(C)CC5)C[C@H]4/C=C\CCCCC[C@H](NC(=O)OC(C)(C)C)C(=O)N2C1)O3 (stereo partly drawn) [Example 46, tert-Butyl (1aR,3aS,3′R,9S,16aS,Z)-5′-cyclobutyl-9′-methoxy-1a-(1-methylcyclopropylsulfonylcarbamoyl)-3,8-dioxo-1a,1′,2,2′,3,3a,4,6,8,9,10,11,12,13,14,16a-hexadecahydro-1H-spiro[cyclopropa[e]pyrrolo[1,2-a][1,4]diazacyclopentadecine-5,3′-pyrano[2,3-c]quinoline]-9-ylcarbamate]",EC50,"HCV genotype 1b replicon; genotype 1b replicon, K+ salt",0.4 nM
same,IC50,[1]; [2],0.02 nM
"Cc1nc2ccc(C3CC3)cc2c2c1O[C@]1(CC2)C[C@H]2C(=O)N[C@]3(C(=O)NS(=O)(=O)C4(C)CC4)C[C@H]3/C=C\CCCCC[C@H](NC(=O)OC(C)(C)C)C(=O)N2C1 [Example 332, tert-butyl [(2R,6S,12Z,13aS,14aR,16aS)-9′-cyclopropyl-5′-methyl-14a-{[(1-methylcyclopropyl)sulfonyl]carbamoyl}-5,16-dioxo-1,1′,2′,5,6,7,8,9,10,11,13a,14,14a,15,16,16a-hexadecahydrospiro[cyclopropa[e]pyrrolo[1,2-a][1,4]diazacyclopentadecine-2,3′-pyrano[2,3-c]quinolin]-6-yl]carbamate]",EC50,HCV genotype 1b replicon; genotype 1b replicon,2.69 nM
same,IC50,[1]; [3],0.017 nM
"COc1ccc2nc(C(F)(F)F)c3c(c2c1)CC[C@]1(C[C@H]2C(=O)N[C@]4(C(=O)NS(=O)(=O)C5(C)CC5)C[C@H]4/C=C\CCCCC[C@H](NC(=O)OC(C)C)C(=O)N2C1)O3 [Example 447, propan-2-yl [(2R,6S,12Z,13aS,14aR,16aS)-9′-methoxy-14a-{[(1-methylcyclopropyl)sulfonyl]carbamoyl}-5,16-dioxo-5′-(trifluoromethyl)-1,1′,2′,5,6,7,8,9,10,11,13a,14,14a,15,16,16a-hexadecahydrospiro[cyclopropa[e]pyrrolo[1,2-a][1,4]diazacyclopentadecine-2,3′-pyrano[2,3-c]quinolin]-6-yl]carbamate]",EC50,"HCV genotype 1b replicon; HCV replicon, genotype 1b",1.37 nM
same,IC50,[1]; [4],0.019 nM
"Cc1nc2ccccc2c2c1O[C@]1(CC2)C[C@H]2C(=O)N[C@]3(C(=O)NS(=O)(=O)C4(C)CC4)C[C@H]3/C=C\CCCCC[C@H](NC(=O)OC(C(F)(F)F)C(F)(F)F)C(=O)N2C1 [Example 258, 1,1,1,3,3,3-hexafluoropropan-2-yl [(2R,6S,12Z,13aS,14aR,16aS)-5′-methyl-14a-{[(1-methylcyclopropyl)sulfonyl]carbamoyl}-5,16-dioxo-1,1′,2′,5,6,7,8,9,10,11,13a,14,14a,15,16,16a-hexadecahydrospiro[cyclopropa[e]pyrrolo[1,2-a][1,4]diazacyclopentadecine-2,3′-pyrano[2,3-c]quinolin]-6-yl]carbamate]",EC50,HCV genotype 1b replicon; genotype 1b replicon,717 nM
same,IC50,[1]; [3],0.022 nM
"COc1ccc2nc(C(F)(F)F)c3c(c2c1)C=C[C@]1(CN2C(=O)[C@@H](NC(=O)OC(C)(C)C)CCCCC/C=C\[C@@H]4C[C@@]4(C(=O)NS(=O)(=O)C4(C)CC4)NC(=O)[C@@H]2C1C)O3 (stereo partly drawn) [Example 62, tert-Butyl ((2S,6S,13aS,14aR,16aS,Z)-9′-methoxy-1-methyl-14a-(((1-methylcyclopropyl)sulfonyl)carbamoyl)-5,16-dioxo-5′-(trifluoromethyl)-3,5,6,7,8,9,10,11,13a, 14,14a,15,16,16a-tetradecahydro-1H-spiro[cyclopropa[e]pyrrolo[1,2-a][1,4]diazacyclopentadecine-2,3′-pyrano[2,3-c]quinolin]-6-yl)carbamate]",EC50,HCV genotype 1b replicon; genotype 1b replicon,0.26 nM
same,IC50,[1]; [3],0.016 nM
"Cc1nc2ccc(OC(F)(F)F)cc2c2c1O[C@]1(CC2)C[C@H]2C(=O)N[C@]3(C(=O)NS(=O)(=O)C4(C)CC4)C[C@H]3/C=C\CCCCC[C@H](NC(=O)N3CCCC3)C(=O)N2C1 [Example 246, (2R,6S,12Z,13aS,14aR,16aS)-5′-methyl-N-[(1-methylcyclopropyl)sulfonyl]-5,16-dioxo-6-[(pyrrolidin-1-ylcarbonyl)amino]-9′-(trifluoromethoxy)-1,1′,2′,6,7,8,9,10,11,13a,14,15,16,16a-tetradecahydrospiro[cyclopropa[e]pyrrolo[1,2-a][1,4]diazacyclopentadecine-2,3′-pyrano[2,3-c]quinoline]-14a(5H)-carboxamide]",EC50,HCV genotype 1b replicon; genotype 1b replicon,17.4 nM
same,IC50,[1]; [3],0.004 nM
"COc1ccc2nc(C(C)C)c3c(c2c1)[C@H](F)C[C@]1(C[C@H]2C(=O)N[C@]4(C(=O)NS(=O)(=O)C5(C)CC5)C[C@H]4/C=C\CCCCC[C@H](NC(=O)OCC(C)(C)C)C(=O)N2C1)O3 [Example 388, 2,2-dimethylpropyl [(1′R,2S,6S,12Z,13aS,14aR,16aS)-1′-fluoro-9′-methoxy-14a-{[(1-methylcyclopropyl)sulfonyl]carbamoyl}-5,16-dioxo-5′-(propan-2-yl)-1,1′,2′,5,6,7,8,9,10,11,13a,14,14a,15,16,16a-hexadecahydrospiro[cyclopropa[e]pyrrolo[1,2-a][1,4]diazacyclopentadecine-2,3′-pyrano[2,3-c]quinolin]-6-yl]carbamate]",EC50,"HCV genotype 1b replicon; HCV replicon, genotype 1b",1.31 nM
same,IC50,[1]; [4],0.028 nM
"COc1ccc2nc(C)c3c(c2c1)[C@H](F)C[C@]1(C[C@H]2C(=O)N[C@]4(C(=O)NS(=O)(=O)C5(C)CC5)C[C@H]4/C=C\CCCCC[C@H](NC(=O)O[C@H](C)C(C)C)C(=O)N2C1)O3 [Example 356, (2R)-3-methylbutan-2-yl [(1′R,2S,6S,12Z,13aS,14aR,16aS)-1′-fluoro-9′-methoxy-5′-methyl-14a-{[(1-methylcyclopropyl)sulfonyl]carbamoyl}-5,16-dioxo-1,1′,2′,5,6,7,8,9,10,11,13a,14,14a,15,16,16a-hexadecahydrospiro[cyclopropa[e]pyrrolo[1,2-a][1,4]diazacyclopentadecine-2,3′-pyrano[2,3-c]quinolin]-6-yl]carbamate]",EC50,"HCV genotype 1b replicon; genotype 1b replicon, K+ salt",3.73 nM
same,IC50,[1]; [2],0.012 nM
"COc1ccc2nc(C(F)(F)F)c3c(c2c1)CC[C@]1(C[C@H]2C(=O)N[C@]4(C(=O)NS(=O)(=O)C5(C)CC5)C[C@H]4/C=C\CCCCC[C@H](NC(=O)OC4(C)CC4)C(=O)N2C1)O3 [Example 216, 1-methylcyclopropyl [(2R,6S,12Z,13aS,14aR,16aS)-9′-methoxy-14a-{[(1-methylcyclopropyl)sulfonyl]carbamoyl}-5,16-dioxo-5′-(trifluoromethyl)-1,1′,2′,5,6,7,8,9,10,11,13a,14,14a,15,16,16a-hexadecahydrospiro[cyclopropa[e]pyrrolo[1,2-a][1,4]diazacyclopentadecine-2,3′-pyrano[2,3-c]quinolin]-6-yl]carbamate]",EC50,HCV genotype 1b replicon; genotype 1b replicon,6.43 nM
same,IC50,[1]; [3],0.013 nM
"COc1ccc2nc(C(F)(F)F)c3c(c2c1)CC[C@]1(C[C@H]2C(=O)N[C@]4(C(=O)NS(=O)(=O)C5(C)CC5)C[C@H]4/C=C\CCCCC[C@H](NC(=O)O[C@@H]4C[C@@H]5C[C@@H]5C4)C(=O)N2C1)O3 [Example 513, (1R,3r,5S)-bicyclo[3.1.0]hex-3-yl [(2R,6S,12Z,13aS,14aR,16aS)-9′-methoxy-14a-{[(1-methylcyclopropyl)sulfonyl]carbamoyl}-5,16-dioxo-5′-(trifluoromethyl)-1,1′,2′,5,6,7,8,9,10,11,13a,14,14a,15,16,16a-hexadecahydrospiro[cyclopropa[e]pyrrolo[1,2-a][1,4]diazacyclopentadecine-2,3′-pyrano[2,3-c]quinolin]-6-yl]carbamate]",EC50,"HCV genotype 1b replicon; HCV replicon, genotype 1b",1.42 nM
same,IC50,[1]; [4],0.01 nM
"COc1ccc2nc(C(C)C)c3c(c2c1)C(F)(F)C[C@]1(C[C@H]2C(=O)N[C@]4(C(=O)NS(=O)(=O)C5(C)CC5)C[C@H]4/C=C\CCCCC[C@H](NC(=O)OC(C)(C)C)C(=O)N2C1)O3 [Example 3, tert-Butyl (2S,6S,13aS,14aR,16aS,Z)-1′,1′-difluoro-5′-isopropyl-9′-methoxy-14a-(1-methylcyclopropylsulfonylcarbamoyl)-5,16-dioxo-1′,2′,3,5,6,7,8,9,10,11,13a,14,14a, 15,16,16a-hexadecahydro-1H-spiro[cyclopropa[e]pyrrolo[1,2-a][1,4]diazacyclopentadecine-2,3′-pyrano[2,3-c]quinoline]-6-ylcarbamate]",EC50,HCV genotype 1b replicon; genotype 1b replicon,2.9 nM
same,IC50,[1]; [3],0.004 nM
"COCCOC(=O)N[C@H]1CCCCC/C=C\[C@@H]2C[C@@]2(C(=O)NS(=O)(=O)C2(C)CC2)NC(=O)[C@@H]2C[C@]3(CCc4c(c(C)nc5ccccc45)O3)CN2C1=O [Example 128, 2-methoxyethyl [(2R,6S,12Z,13aS,14aR,16aS)-5′-methyl-14a-{[(1-methylcyclopropyl)sulfonyl]carbamoyl}-5,16-dioxo-1,1′,2′,5,6,7,8,9,10,11,13a,14,14a,15,16,16a-hexadecahydrospiro[cyclopropa[e]pyrrolo[1,2-a][1,4]diazacyclopentadecine-2,3′-pyrano[2,3-c]quinolin]-6-yl]carbamate]",EC50,HCV genotype 1b replicon; genotype 1b replicon,2.01 nM
same,IC50,[1]; [3],0.044 nM
"COc1ccc2nc(C)c3c(c2n1)[C@H](F)C[C@]1(C[C@H]2C(=O)N[C@]4(C(=O)NS(=O)(=O)C5(C)CC5)C[C@H]4/C=C\CCCCC[C@H](NC(=O)OC(C)(C)C)C(=O)N2C1)O3 [Example 374, tert-butyl [(2S,6S,10′R,12Z,13aS,14aR,16aS)-10′-fluoro-2′-methoxy-6′-methyl-14a-{[(1-methylcyclopropyl)sulfonyl]carbamoyl}-5,16-dioxo-1,5,6,7,8,9,9′,10,10′,11,13a,14,14a,15,16,16a-hexadecahydrospiro[cyclopropa[e]pyrrolo[1,2-a][1,4]diazacyclopentadecine-2,8′-pyrano[2,3-c][1,5]naphthyridin]-6-yl]carbamate]",EC50,"HCV genotype 1b replicon; HCV replicon, genotype 1b",2.29 nM
same,IC50,[1]; [4],0.012 nM
